Earlier results as cited in patent publication US20230390244A1, “MODIFIED RELEASE COMPOSITIONS COMPRISING MELATONIN” (Inventia Healthcare Limited, priority 2020, published 2023).

Key:
[1] = not given; remark: listed apart in the source

- time within which plasma concentrations decline (immediate-release formulation, depending on dose): ≤ 1.5 h
- half-life (in vivo): 40 to 50 min
- solubility in organic solvents ([1]; acetone, ethyl acetate and methanol): soluble
- solubility in water ([1]; water): slightly soluble
Structure (SMILES): COc1ccc2[nH]cc(CCNC(C)=O)c2c1 [Melatonin, N-acetyl-5-methoxytryptamine]
